This note sets out measurements from patent US20070015833A1 (priority 2005, published 2007).

The structures appear in SMILES notation.

The nature of this series: small volume in vitro release in 50 ml 0.1N HCl. Format: physicochemical. Particulars: 37° C., 150 rpm. Here is the method: The formulations were tested for their small volume in vitro release characteristics in 50 ml 0.1N HCl at 37° C. and 150 rpm using the following procedure: III. Instrumentation (or Equivalent) a. Automated Dissolution System comprising of: Hanson SR8 Plus Test Station Hanson Auto Plus Maximiser System Controller Hanson Auto Plus MultiFill Fraction Collector b. HPLC System comprising of: pump—Merck Hitachi L-7100 autoinjector—Merck Hitachi L-7200 column oven—Merck Hitachi L-7300 detector—Merck Hitachi L-7400 interface and integration software—Merck Hitachi D-7000
0.1N HCl Preparation Dilute 8.5 ml HCl 37% to 1 liter with purified water. Procedure Place one weighed capsule in each vessel containing 0.1N HCl and immediately operate the apparatus for 30 min. Unless otherwise specified, 3 ml samples are withdrawn from each vessel and immediately filtered through PTFE membranes at 15 and 30 min.
The small volume was chosen as a model of the conditions in a fasted stomach.

As for `CC(C)OC(=O)C(C)(C)Oc1ccc(C(=O)c2ccc(Cl)cc2)cc1` [Micronized Fenofibrate], the “dissolution (in words)” value is “no dissolution at all”. Also, the “% dissolved 15 min” value (15 min) came out at 0%. Further, for the setting “30 min”, the “% dissolved 30 min” value is on record as 0%.
